According to patent US9284297B2, “Halofuginone analogs for inhibition of tRNA synthetases and uses thereof” (President and Fellows of Harvard College, priority 2008, dated 2016):

What was measured:
[1] = test system: CD4+ CD25− T cells (Th1, Th2, iTreg differentiation, proliferation, CD25), CD8+ T cells, B cells; experiment: T and B cell activation, proliferation and Th1, Th2, iTreg differentiation; type: cell-based, murine
Experimental: Cytokines secreted into media supernatant were measured using the mouse Th1/Th2 cytometric bead array (CBA—BD Pharmingen) in accordance with manufacturers instructions.

[2] = test system: translation of luciferase RNA in rabbit reticulocyte lysate; experiment: Translation of a luciferase RNA reporter in rabbit reticulocyte lysate; type: biochemical; design: key to Translational inhibition: “+++” vs. “++” vs. “+” in general denotes ˜4-fold differences in potency; “+++” vs. “++” vs. “+” in general denotes ˜4-fold differences in potency; “+++” vs. “++” vs. “+” in general denotes ˜4-fold differences in potency; “−” denotes no activity at any dose tested, up to 1000× the effective dose of halofuginone
Experimental: To distinguish these possibilities, the effect of halofuginone on protein translation was examined in an in vitro system (rabbit reticulocyte lysate) in which amino acids are already present at levels adequate to support protein synthesis. […] Distinct tRNA synthetases catalyze the charging of individual tRNA species with their cognate amino acid. To determine which tRNA synthetase is inhibited by halofuginone, several amino acid mixtures were added to the in vitro translation system to determine which, if any, could reverse the inhibition of translation by halofuginone (FIG. 3). […] To examine whether proline could specifically rescue the effect of halofuginone in intact cells, the ability of each amino acid to reverse the effect of halofuginone on eIF2alpha phosphorylation in T-cells or to prevent halofuginone inhibition of Th17 differentiation was tested (FIG. 4). […] Inhibition of EPRS with compounds of the current invention can inhibit Th17 differentiation.
Translation in vitro was performed using rabbit reticulocyte lysates and luciferase mRNA as template. Translation was measured as arbitrary units of luciferase activity using a luminometer based luminescence assay. Log scale presentation of background-subtracted data is shown.
Inhibition of translation of luciferase RNA by halofuginone and analogs thereof was measured as described in FIG. 3 above. Results are shown of translation of a luciferase RNA reporter in a rabbit reticulocyte lysate. “+++” vs. “++” vs. “+” in general denotes ˜4-fold differences in potency. “−” denotes no activity at any dose tested, up to 1000× the effective dose of halofuginone.

O=C(CC1NCCCC1O)Cn1cnc2cc(Br)c(Cl)cc2c1=O (stereo not drawn) [Compound 1, 7-bromo-6-chloro-3-[3-(3-hydroxy-2-piperidinyl)-2-oxopropyl]-4(3H)-quinazolinone]
concentration inducing general inhibition of T and B cell activation, proliferation, and effector function [1]: > 20 nM
effect on T cell proliferation, CD25 upregulation, IL-2, TNF, IFNγ production ([1]; 1-10 nM): did not affect T cell proliferation, CD25 upregulation, or production of IL-2, TNF, or IFNγ
effect on Th1, Th2, iTreg differentiation ([1]; polarizing cytokine conditions, IFNγ, IL-4, Foxp3 expression): failed to modulate Th1, Th2 or iTreg differentiation
inhibition of translation of luciferase ([2]; 400 nM): 5-6 orders of magnitude
rescue of translation inhibition by added amino acids ([2]; 400 nM halofuginone, 1-2 mM amino acids): Addition of proline, either alone or in combination with phenylaline and serine, rescues inhibition of translation
Translational inhibition ([2]; luciferase RNA reporter): +++
